Results taken from publication PMC12263876, “DDX39B K63-linked ubiquitination mediated by TRIM28 promotes NSCLC metastasis by enhancing ECAD lysosomal degradation” (Signal Transduction and Targeted Therapy, 2025).
pKd: −log10 of the molar value.

Biological target: T1, DDX39B (Homo sapiens, UniProt Q13838)
T1 construct: His-DDX39B
Assay: SPR (KD […]); also BLI with biotinylated His-DDX39B (KD […]) and CETSA in NSCLC cells
Format: binding

T1 sequence (Q13838 2-428): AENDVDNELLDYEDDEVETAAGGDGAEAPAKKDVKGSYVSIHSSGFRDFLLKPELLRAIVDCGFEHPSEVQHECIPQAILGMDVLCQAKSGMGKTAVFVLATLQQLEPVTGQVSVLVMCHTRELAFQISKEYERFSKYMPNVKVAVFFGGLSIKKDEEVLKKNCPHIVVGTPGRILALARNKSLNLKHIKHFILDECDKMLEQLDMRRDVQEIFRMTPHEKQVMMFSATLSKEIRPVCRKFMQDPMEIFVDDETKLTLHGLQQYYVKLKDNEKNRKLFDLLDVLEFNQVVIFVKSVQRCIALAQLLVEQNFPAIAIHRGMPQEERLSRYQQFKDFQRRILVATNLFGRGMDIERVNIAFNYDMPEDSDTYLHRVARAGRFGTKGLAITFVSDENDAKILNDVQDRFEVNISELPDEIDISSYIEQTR

- pKd: 5.49
Compound: C[C@H]1[C@H](OC(=O)CCC(=O)O)O[C@@H]2O[C@@]3(C)CC[C@H]4[C@H](C)CC[C@@H]1[C@@]24OO3 [artesunate]
